In general, IC50 refers to the concentration needed to halve the response being measured.

A value given as a limit tells only on which side of the number the result lay.

Here are results for 52 molecules from ChEMBL document CHEMBL1139498, “Discovery of potent, orally available vanilloid receptor-1 antagonists. Structure-activity relationship of N-aryl cinnamides” (J Med Chem, 2005).

In assay [1] the target is T1, Transient receptor potential cation channel subfamily V member 1 (Homo sapiens, UniProt Q8NER1). In words: Inhibition of capsaicin-induced calcium uptake by transient receptor potential vanilloid type 1 expressed in CHO cells. It is filed as functional, cell-based.
For assay [2], the target named is T1, Transient receptor potential cation channel subfamily V member 1. In words: Inhibition of pH-induced calcium uptake by transient receptor potential vanilloid type 1 expressed in CHO cells. It counts as functional, cell-based.

T1 sequence (Q8NER1 whole entry): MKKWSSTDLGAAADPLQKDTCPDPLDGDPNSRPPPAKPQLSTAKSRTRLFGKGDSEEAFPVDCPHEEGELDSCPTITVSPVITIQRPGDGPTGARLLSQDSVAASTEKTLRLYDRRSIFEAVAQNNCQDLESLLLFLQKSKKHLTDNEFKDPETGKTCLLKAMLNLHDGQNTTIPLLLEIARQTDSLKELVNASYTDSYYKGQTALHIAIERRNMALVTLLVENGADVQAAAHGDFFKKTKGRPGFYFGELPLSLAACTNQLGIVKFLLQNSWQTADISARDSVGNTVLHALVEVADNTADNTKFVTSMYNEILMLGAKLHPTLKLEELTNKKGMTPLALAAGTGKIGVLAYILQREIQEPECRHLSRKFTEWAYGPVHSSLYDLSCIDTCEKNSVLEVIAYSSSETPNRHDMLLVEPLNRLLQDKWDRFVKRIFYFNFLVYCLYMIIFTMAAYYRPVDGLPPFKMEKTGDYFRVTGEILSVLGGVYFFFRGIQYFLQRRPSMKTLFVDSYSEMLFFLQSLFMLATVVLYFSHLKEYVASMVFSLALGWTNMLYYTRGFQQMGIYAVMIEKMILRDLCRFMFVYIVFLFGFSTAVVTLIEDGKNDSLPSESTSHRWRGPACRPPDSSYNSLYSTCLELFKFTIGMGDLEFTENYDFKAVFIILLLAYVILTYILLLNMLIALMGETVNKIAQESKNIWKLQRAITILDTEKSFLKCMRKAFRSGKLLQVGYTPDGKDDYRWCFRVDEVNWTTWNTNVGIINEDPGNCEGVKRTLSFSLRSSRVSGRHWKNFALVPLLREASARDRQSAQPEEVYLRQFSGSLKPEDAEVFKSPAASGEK

On to `O=C(/C=C/c1ccc(C(F)(F)F)nc1N1CCOCC1)Nc1ccc2c(c1)OCCO2`, for which the half-inhibitory concentration (IC50) in assay [1] was determined as 15 nM; in assay [2], 40 nM.

Regarding `COc1ccc(NC(=O)/C=C/c2ccc(C(C)(C)C)cc2)cc1O`, in assay [2], the IC50 was above 4000 nM.

Turning to `COc1ccccc1NC(=O)/C=C/c1ccc(C(C)(C)C)cc1`, the half-maximal inhibitory concentration (IC50) in assay [1] is 550 nM; in assay [2], above 4000 nM.

Take `CC(C)(C)c1ccc(/C=C/C(=O)Nc2ccc3c(c2)OCCO3)c(C(=O)O)c1`: the concentration for half-maximal inhibition (IC50) in assay [1] and in assay [2] was above 4000 nM in each case.

For the molecule `CC(C)(C)c1ccc(/C=C/C(=O)Nc2ccc3c(c2)OCCO3)cc1` (stereo in doubt; 34), in assay [2], the IC50 was 3200 nM.

Consider `O=C(/C=C/c1ccc(C(F)(F)F)nc1)Nc1ccc2c(c1)OCCO2`, for which the concentration for half-maximal inhibition (IC50) is 870 nM in assay [1] and 1290 nM in assay [2].

Consider `COc1ccc(NC(=O)/C=C/c2ccc(C(C)(C)C)cc2)cc1`, for which the IC50 is 140 nM in assay [1] and above 4000 nM in assay [2].

Consider `CCOC(=O)CC/C(=C\C(=O)Nc1ccc2c(c1)OCCO2)c1ccc(C(C)(C)C)cc1`, for which the IC50 was 36 nM in assay [1] and 290 nM in assay [2].

Consider `Cc1ccc(/C=C/C(=O)Nc2ccc3c(c2)OCCO3)cc1`, for which the IC50 in assay [1] was found to be 210 nM; in assay [2], 1100 nM.

With `CC(C)(C)c1ccc(/C=C/CNc2ccc3c(c2)OCCO3)cc1`, the 50% inhibitory concentration (IC50) in assay [1] and in assay [2] was above 4000 nM each time.

As for `O=C(/C=C/c1ccc(Br)cc1)Nc1ccc2c(c1)OCCO2`, the half-inhibitory concentration (IC50) came out at 110 nM in assay [1] and 370 nM in assay [2].

On to `CC(C)(C)c1ccc(/C=C/C(=O)Nc2ccccc2)cc1`, for which the IC50 in assay [2] is above 4000 nM.

In the case of `CC(C)(C)c1ccc(/C=C/C(=O)Nc2ccc3c(c2)OCC(=O)N3)cc1`, the IC50 in assay [1] is 270 nM; in assay [2] it was above 4000 nM.

Take `CCOC(=O)c1cc(C(C)(C)C)ccc1/C=C/C(=O)Nc1ccc2c(c1)OCCO2`: the IC50 worked out at 15 nM in assay [1] and 26 nM in assay [2].

On to `CC(C)(C)c1ccc(/C(=C/C(=O)Nc2ccc3c(c2)OCCO3)c2ccncc2)cc1`, for which the IC50 in assay [1] came to 44 nM; in assay [2] it was 660 nM.

Regarding `CC(C)(C)c1ccc(/C=C/C(=O)Nc2ccc3c(c2)NC(=O)CO3)cc1`, the IC50 in assay [1] was 6.5 nM; in assay [2], above 4000 nM.

For `O=C(/C=C/c1ccc(C(F)(F)F)nc1N1CCCCC1)Nc1ccc2c(c1)OCCO2`, the IC50 is 27 nM in assay [1] and 54 nM in assay [2].

As for `CC(C)(C)c1ccc(/C(=C/C(=O)Nc2ccc3c(c2)OCCO3)Cc2ccccc2)cc1`, the IC50 in assay [1] was 14 nM; in assay [2] it was 110 nM.

As to `C/C(=C\C(=O)Nc1ccc2c(c1)OCCO2)c1ccc(C(C)(C)C)cc1`, in assay [2], the 50% inhibitory concentration (IC50) was determined as 430 nM.

On to `CC(C)(C)c1ccc(/C=C/C(=S)Nc2ccc3c(c2)OCCO3)cc1`, for which the IC50 amounted to 280 nM in assay [1] and 1400 nM in assay [2].

Take `CC(C)C/C(=C\C(=O)Nc1ccc2c(c1)OCCO2)c1ccc(C(C)(C)C)cc1`: the IC50 was 16 nM in assay [1] and 94 nM in assay [2].

For `CC(C)(C)c1ccc(/C=C/C(=O)Nc2ccc3c(c2)OCCO3)cn1`, the concentration for half-maximal inhibition (IC50) in assay [1] was found to be 100 nM; in assay [2], 2400 nM.

In the case of `CC(C)c1ccc(/C=C/C(=O)Nc2ccc3c(c2)OCCO3)cc1`, the 50% inhibitory concentration (IC50) in assay [1] came out at 55 nM; in assay [2], 82 nM.

Take `O=C(/C=C/c1ccc([N+](=O)[O-])cc1)Nc1ccc2c(c1)OCCO2`: the results for the concentration for half-maximal inhibition (IC50) in assay [1] and in assay [2] were 190 nM and 440 nM, respectively.

Take `CCc1ccc(/C=C/C(=O)Nc2ccc3c(c2)OCCO3)cc1`: the figures for the half-inhibitory concentration (IC50) in assay [1] and in assay [2] were 170 nM and 220 nM, respectively.

On to `C/C(=C\c1ccc(C(C)(C)C)cc1)C(=O)Nc1ccc2c(c1)OCCO2`, for which, in assay [2], the 50% inhibitory concentration (IC50) worked out at 600 nM.

With `Cc1nc(C(F)(F)F)ccc1/C=C/C(=O)Nc1ccc2c(c1)OCCO2`, the results for the 50% inhibitory concentration (IC50) in assay [1] and in assay [2] were 360 nM and 870 nM, respectively.

For `O=C(/C=C/c1ccc(O)cc1)Nc1ccc2c(c1)OCCO2`, the IC50 in assay [1] and in assay [2] was above 4000 nM throughout.

For the molecule `O=C(/C=C/c1ccc(F)cc1)Nc1ccc2c(c1)OCCO2`, the IC50 is 1000 nM in assay [1] and above 4000 nM in assay [2].

On to `CC(C)(C)c1cccc(/C=C/C(=O)Nc2ccc3c(c2)OCCO3)c1`, for which the concentration for half-maximal inhibition (IC50) is 620 nM in assay [1] and above 4000 nM in assay [2].

In the case of `CN(C)CCC/C(=C\C(=O)Nc1ccc2c(c1)OCCO2)c1ccc(C(C)(C)C)cc1`, the IC50 is 3900 nM in assay [1] and above 4000 nM in assay [2].

`CCCCc1ccc(/C=C/C(=O)Nc2ccc3c(c2)OCCO3)cc1`: the IC50 worked out at 360 nM in assay [1] and 2700 nM in assay [2].

In the case of `Oc1cc2c(cc1O)CN(C(=S)NCCc1ccc(Cl)cc1)CCC2` [CAPSAZEPINE], the 50% inhibitory concentration (IC50) in assay [1] was found to be 420 nM.

As to `O=C(/C=C/c1ccc(-c2ccccc2)cc1)Nc1ccc2c(c1)OCCO2`, the concentration for half-maximal inhibition (IC50) in assay [1] and in assay [2] was above 4000 nM in each case.

As for `CC(C)(C)c1ccc(/C=C/C(=O)Nc2ccc3c(c2)OCCO3)c(Br)c1`, the IC50 came to 60 nM in assay [1] and 470 nM in assay [2].

As to `CC(C)(C)c1ccc(CCC(=O)Nc2ccc3c(c2)OCCO3)cc1`, the IC50 in assay [1] came out at 150 nM; in assay [2], 660 nM.

`CC(C)(C)c1ccc(/C(=C/C(=O)Nc2ccc3c(c2)OCCO3)c2cccnc2)cc1`: the half-maximal inhibitory concentration (IC50) in assay [1] turned out to be 78 nM; in assay [2] it was 510 nM.

Take `CC(C)(C)c1ccc(/C=C/C(=O)Nc2ccc3c(c2)CCCC3)cc1`: the results for the concentration for half-maximal inhibition (IC50) in assay [1] and in assay [2] were 61 nM and 960 nM, respectively.

Take `CC(C)(C)c1ccc(/C(=C/C(=O)Nc2ccc3c(c2)OCCO3)c2ccccc2)cc1`: the IC50 in assay [1] stood at 20 nM; in assay [2], 120 nM.

Regarding `O=C(/C=C/c1ccc(C(F)(F)F)cc1)Nc1ccc2c(c1)OCCO2`, the IC50 worked out at 46 nM in assay [1] and 100 nM in assay [2].

With `CC(C)(C)c1ccc(/C(=C/C(=O)Nc2ccc3c(c2)OCCO3)c2ccc(C(F)(F)F)cc2)cc1`, the 50% inhibitory concentration (IC50) came to 25 nM in assay [1] and 180 nM in assay [2].

Turning to `CC/C(=C\c1ccc(C(C)(C)C)cc1)C(=O)Nc1ccc2c(c1)OCCO2`, the half-inhibitory concentration (IC50) in assay [1] was 210 nM; in assay [2], 800 nM.

Take `CC(C)(C)c1ccc(/C=C(/C(=O)Nc2ccc3c(c2)OCCO3)c2ccccc2)cc1`: the half-inhibitory concentration (IC50) in assay [1] and in assay [2] was above 4000 nM each time.

On to `COc1cccc(NC(=O)/C=C/c2ccc(C(C)(C)C)cc2)c1`, for which the results for the IC50 in assay [1] and in assay [2] were 21 nM and above 4000 nM, respectively.

`CC(C)(C)c1ccc(/C=C/C(=O)Nc2ccc3c(c2)NCCO3)cc1`: the IC50 is 110 nM in assay [1] and above 4000 nM in assay [2].

With `COc1ccc(NC(=O)/C=C/c2ccc(C(C)(C)C)cc2)cc1OC`, the IC50 in assay [1] is 170 nM; in assay [2], above 4000 nM.

With `CC(C)Cc1ccc(/C=C/C(=O)Nc2ccc3c(c2)OCCO3)cc1`, the half-maximal inhibitory concentration (IC50) in assay [1] is 360 nM; in assay [2], 860 nM.

`CC(C)(C)c1ccc(/C=C/C(=O)Nc2ccc3c(c2)OCCO3)nc1`: the figures for the half-inhibitory concentration (IC50) in assay [1] and in assay [2] were 500 nM and 2900 nM, respectively.

Turning to `CC(C)(C)c1ccc(/C=C/C(=O)Nc2ccc3c(c2)OCO3)cc1`, the IC50 in assay [1] is 570 nM; in assay [2] it was above 4000 nM.

As to `CC(C)(C)c1ccc(/C=C/C(=O)Nc2ccc3cccnc3c2)cc1`, in assay [2], the IC50 is 2.02 nM.

Take `CC(C)(C)c1ccc(/C=C/C(=O)Nc2ccc3c(c2)NC(=O)CC3)cc1`: in assay [2], the concentration for half-maximal inhibition (IC50) came out at 71 nM.

In the case of `CC(C)(C)c1ccc(/C=C/C(=O)Oc2ccc3c(c2)OCCO3)cc1`, the IC50 in assay [2] amounted to 3200 nM.
